Source: patent publication EP1931657B1, “NOVEL HIGH AFFINITY QUINOLINE-BASED KINASE LIGANDS” (Merck Sharp & Dohme Corp., priority 2005, dated 2007)

What follows are compounds tested against CDK-2 (Homo sapiens, UniProt P24941) (assay: CDK-2 inhibition, fluorescence polarization displacement assay).
Procedure: Binding assays were performed in a 384 well Costar NBS coated plate. […] The concentration of BMS-Alexa Fluor647 was 50 nM. Serial dilutions of compounds were added to 12 wells. The final buffer concentration was 10 mM Hepes, pH 7.5, 150 mM NaCl, and 1 mM DTT. Samples were incubated at room temperature for 15 minutes and then read in an Analyst HT instrument using an excitation and emission wavelength of 580 and 680 nm, respectively.

**Q.** With `COC[C@H](Cc1ccc(O)cc1)NC(=O)c1cc(C(=O)OCC(O)CO)c2cc(/C=C/c3ccc(Cl)cc3)ccc2n1` (stereo partly drawn) [Compound 215] as the compound, how does the IC50 read?
**A.** > 40 µM

**Q.** `COC[C@H](Cc1ccc(O)cc1)NC(=O)c1cc(-n2cccn2)c2cc(-c3cccc(Cn4cccn4)c3)ccc2n1` [Compound 213] was tested. Which IC50 did it give?
**A.** > 40 µM

**Q.** How did the IC50 turn out when `COC(=O)[C@H](Cc1ccc(O)cc1)NC(=O)c1cc(C(=O)O)c2cc(CCc3ccccc3)ccc2n1` [Compound 60] was run?
**A.** < 1 µM

**Q.** `COC(=O)[C@H](Cc1ccc(O)cc1)NC(=O)c1cc(C(=O)O)c2cc(-c3cc4ccccc4o3)ccc2n1` [Compound 38] was tested. Which IC50 did it give?
**A.** < 1 µM

**Q.** For `COC(=O)[C@H](Cc1c[nH]cn1)NC(=O)c1cc(C(=O)O)c2cc(-c3cccs3)ccc2n1` [Compound 156], which IC50 is on record?
**A.** > 40 µM

**Q.** For `COC[C@H](Cc1ccc(O)cc1)NC(=O)c1cc(C(=O)O)c2cc(COc3ccccc3)ccc2n1` [Compound 180], which IC50 is on record?
**A.** > 40 µM

**Q.** With `COC(=O)[C@H](Cc1ccc(O)cc1)NC(=O)c1cc(C(=O)O)c2cc(-c3ccc(F)cc3)ccc2n1` [Compound 135] as the compound, how does the IC50 read?
**A.** 1 to 40 µM

**Q.** With `COC[C@H](Cc1ccc(O)cc1)NC(=O)c1cc(S(=O)(=O)O)c2cc(-c3cccc(C(F)(F)F)c3)ccc2n1` [Compound 71] as the compound, how does the IC50 read?
**A.** < 1 µM

**Q.** `COC[C@H](Cc1ccc(O)cc1)NC(=O)c1cc(C(=O)O)c2cc(C#Cc3ccncc3)ccc2n1` [Compound 204] was tested. Which IC50 did it give?
**A.** > 40 µM

**Q.** How did the IC50 turn out when `COC[C@H](Cc1ccc(O)cc1)NC(=O)c1cc(C(=O)O)c2cc(-c3cccc(Cn4ccccc4=O)c3)ccc2n1` [Compound 26] was run?
**A.** < 1 µM

**Q.** With `COC(=O)[C@H](Cc1ccc(O)cc1)NC(=O)c1cc(C(=O)O)c2cc(-c3cccc(NC(C)=O)c3)ccc2n1` [Compound 158] as the compound, how does the IC50 read?
**A.** > 40 µM

**Q.** `COC[C@H](Cc1ccc(O)cc1)NC(=O)c1cc(C(=O)O)c2cc(C#Cc3ccccc3C(F)(F)F)ccc2n1` [Compound 148] was tested. Which IC50 did it give?
**A.** 1 to 40 µM

**Q.** Which IC50 does the source give for `COC(=O)[C@H](Cc1ccc(O)cc1)NC(=O)c1cc(C(=O)O)c2cc(-c3ccc(C)s3)ccc2n1` [Compound 82] here?
**A.** < 1 µM

**Q.** `CCOC(=O)C#Cc1ccc2nc(C(=O)N[C@H](COC)Cc3ccc(O)cc3)cc(C(=O)O)c2c1` [Compound 206] was tested. Which IC50 did it give?
**A.** > 40 µM

**Q.** With `NCC[C@H](Cc1ccc(O)cc1)NC(=O)c1cc(C(=O)O)c2cc(CCc3ccccc3)ccc2n1` [Compound 182] as the compound, how does the IC50 read?
**A.** > 40 µM

**Q.** Which IC50 does the source give for `COC(=O)[C@H](Cc1ccc(O)cc1)NC(=O)c1cc(C(=O)O)c2cc(Cc3ccccc3)ccc2n1` [Compound 159] here?
**A.** > 40 µM

**Q.** With `COC[C@H](Cc1ccc(O)cc1)NC(=O)c1cc(C(=O)OCCO)c2cc(-c3cccc(C(F)(F)F)c3)ccc2n1` [Compound 173] as the compound, how does the IC50 read?
**A.** > 40 µM

**Q.** Which IC50 does the source give for `COC(=O)[C@H](Cc1ccc(O)cc1)NC(=O)c1cc(C(=O)O)c2cc(-c3cccc(C)c3)ccc2n1` [Compound 48] here?
**A.** < 1 µM

**Q.** For `COC(=O)[C@H](Cc1ccc(O)cc1)NC(=O)c1cc(C(=O)O)c2cc(-c3ccc(OC)c(F)c3)ccc2n1` [Compound 113], which IC50 is on record?
**A.** 1 to 40 µM

**Q.** `COC[C@H](Cc1ccc(O)cc1)NC(=O)c1cc(C(=O)O)c2cc(CN(C)C)ccc2n1` [Compound 211] was tested. Which IC50 did it give?
**A.** > 40 µM

**Q.** `COC(=O)[C@H](Cc1ccc(O)cc1)NC(=O)c1cc(C(=O)O)c2cc(-c3ccc(C)cc3)ccc2n1` [Compound 103] was tested. Which IC50 did it give?
**A.** 1 to 40 µM

**Q.** With `COC[C@H](Cc1ccc(O)cc1)NC(=O)c1cc(C(=O)O)c2cc(COc3ccc(O)cc3)ccc2n1` [Compound 202] as the compound, how does the IC50 read?
**A.** > 40 µM

**Q.** `COC(=O)[C@H](Cc1ccc(OC(C)(C)C)cc1)NC(=O)c1cc(C(=O)O)c2cc(-c3cccc(C(F)(F)F)c3)ccc2n1` [Compound 166] was tested. Which IC50 did it give?
**A.** > 40 µM

**Q.** `CN(C)C(=O)[C@H](Cc1ccc(O)cc1)NC(=O)c1cc(C(=O)O)c2cc(/C=C/c3ccc(Cl)cc3)ccc2n1` [Compound 34] was tested. Which IC50 did it give?
**A.** < 1 µM

**Q.** For `COC(=O)[C@H](Cc1ccc(O)cc1)NC(=O)c1cc(C(=O)O)c2cc(-c3ccc(F)c(Cl)c3)ccc2n1` [Compound 50], which IC50 is on record?
**A.** < 1 µM

**Q.** `CCOC(=O)c1cc(C(=O)N[C@H](COC)Cc2ccc(O)cc2)nc2ccc(/C=C/c3ccc(Cl)cc3)cc12` [Compound 217] was tested. Which IC50 did it give?
**A.** > 40 µM

**Q.** For `CNC(=O)[C@H](Cc1ccc(O)cc1)NC(=O)c1cc(C(=O)O)c2cc(/C=C/c3ccc(Cl)cc3)ccc2n1` [Compound 14], which IC50 is on record?
**A.** < 1 µM

**Q.** Which IC50 does the source give for `COC(=O)C(Cc1ccc(O)cc1)NC(=O)c1cc(C(=O)NC(C)C)c2cc(-c3cccs3)ccc2n1` (stereo not drawn) [Compound 235] here?
**A.** > 40 µM

**Q.** Which IC50 does the source give for `O=C(N[C@@H](Cc1ccc(O)cc1)c1ncc[nH]1)c1cc(C(=O)O)c2cc(-c3cccc(C(F)(F)F)c3)ccc2n1` [Compound 86] here?
**A.** < 1 µM

**Q.** Which IC50 does the source give for `COC(=O)[C@H](Cc1ccc(O)cc1)NC(=O)c1cc(C(=O)Nc2nnn[nH]2)c2cc(-c3cccs3)ccc2n1` [Compound 234] here?
**A.** > 40 µM

**Q.** `COC[C@H](Cc1ccc(O)cc1)NC(=O)c1cc(C(=O)O)c2cc(-c3cccc(CN(C)CCO)c3)ccc2n1` [Compound 191] was tested. Which IC50 did it give?
**A.** > 40 µM

**Q.** Which IC50 does the source give for `COC(=O)[C@H](Cc1ccc(O)cc1)NC(=O)c1cc(C(=O)O)c2cc(-c3cc(C)cc(C)c3)ccc2n1` [Compound 67] here?
**A.** < 1 µM

**Q.** With `COC(=O)[C@H](Cc1ccc(O)cc1)NC(=O)c1cc(C(=O)O)c2cc(-c3cccnc3)ccc2n1` [Compound 130] as the compound, how does the IC50 read?
**A.** 1 to 40 µM

**Q.** For `COC(=O)[C@H](Cc1ccc(O)cc1)NC(=O)c1cc(C(=O)O)c2cc(-c3cccc([N+](=O)[O-])c3)ccc2n1` [Compound 33], which IC50 is on record?
**A.** < 1 µM

**Q.** `COC[C@H](Cc1ccc(O)cc1)NC(=O)c1cc(C(=O)O)c2cc(C#CCN(C)C)ccc2n1` [Compound 185] was tested. Which IC50 did it give?
**A.** > 40 µM

**Q.** For `COC(=O)[C@H](Cc1ccc(O)cc1)NC(=O)c1cc(C(=O)OCCO)c2cc(-c3cccs3)ccc2n1` [Compound 230], which IC50 is on record?
**A.** > 40 µM

**Q.** For `NC[C@H](Cc1ccc(O)cc1)NC(=O)c1cc(C(=O)O)c2cc(CCc3ccccc3)ccc2n1` [Compound 181], which IC50 is on record?
**A.** > 40 µM

**Q.** With `COC[C@H](Cc1ccc(O)cc1)NC(=O)c1cc(C(=O)O)c2cc(-c3cccc(COc4cccnc4)c3)ccc2n1` [Compound 141] as the compound, how does the IC50 read?
**A.** 1 to 40 µM

**Q.** Which IC50 does the source give for `COC[C@H](Cc1ccc(O)cc1)NC(=O)c1cc(C(=O)O)c2cc(CSc3ccncc3)ccc2n1` [Compound 208] here?
**A.** > 40 µM

**Q.** Which IC50 does the source give for `COC[C@H](Cc1ccc(O)cc1)NC(=O)c1cc(C(=O)O)c2cc(-c3cccc(CNC(CO)CO)c3)ccc2n1` [Compound 197] here?
**A.** > 40 µM

**Q.** For `COC[C@H](Cc1ccc(O)cc1)NC(=O)c1cc(C(=O)O)c2cc(C#CCN3CCS(=O)(=O)CC3)ccc2n1` [Compound 205], which IC50 is on record?
**A.** > 40 µM

**Q.** How did the IC50 turn out when `COC(=O)[C@H](Cc1ccc(O)cc1)NC(=O)c1cc(C(=O)O)c2cc(-c3ccc(N(C)C)cc3)ccc2n1` [Compound 107] was run?
**A.** 1 to 40 µM

**Q.** Which IC50 does the source give for `COC[C@H](Cc1ccc(O)cc1)NC(=O)c1cc(S(C)(=O)=O)c2cc(-c3cccc(C(F)(F)F)c3)ccc2n1` [Compound 172] here?
**A.** > 40 µM

**Q.** Which IC50 does the source give for `COC[C@H](Cc1ccc(O)cc1)NC(=O)c1cc(C(=O)OCCO)c2cc(/C=C/c3ccc(Cl)cc3)ccc2n1` [Compound 214] here?
**A.** > 40 µM

**Q.** Which IC50 does the source give for `COC(=O)[C@H](Cc1ccc(O)cc1)NC(=O)c1cc(C(=O)O)c2cc(-c3ccc(OC)cc3)ccc2n1` [Compound 76] here?
**A.** < 1 µM

**Q.** `COC(=O)[C@H](Cc1ccc(O)cc1)NC(=O)c1cc(C(=O)O)c2cc(-c3cncnc3)ccc2n1` [Compound 226] was tested. Which IC50 did it give?
**A.** > 40 µM

**Q.** Which IC50 does the source give for `COC[C@H](Cc1ccc(O)cc1)NC(=O)c1cc(NS(=O)(=O)C(C)(C)C)c2cc(-c3cccc(N4CCOCC4)c3)ccc2n1` [Compound 136] here?
**A.** 1 to 40 µM

**Q.** Which IC50 does the source give for `COC[C@H](Cc1ccc(O)cc1)NC(=O)c1cc(C(=O)O)c2cc(C#CCCCN3CCN(C)CC3)ccc2n1` [Compound 220] here?
**A.** > 40 µM
